Data from patent US20110071150A1 (priority 2009, published 2011).

These compounds were tested on Jurkat IL-2 Production (assay: Jurkat IL-2 Production Assay). Conditions: Homo sapiens, Jurkat cell (ATCC), 18-20 h incubation, PHA 5 μg/mL with 1% FBS, or PMA/Ionomycin with 30% FBS (table does not say which).
Type: cell-based
Procedure, shortened: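 Jurkat cells were exposed to compound (0.25% DMSO final) for 10 min, then stimulated for 18–20 h at 37 °C. The 1% FBS condition used 5 μg/mL PHA; the high-serum condition (30% FBS) used 50 ng/mL PMA plus 500 ng/mL ionomycin. IC50 was derived from IL-2 production.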

Row | IC50 [nM] | SMILES
1 | 142 | CC(c1sc(-c2cccnc2)nc1-c1ccc2[nH]c(-c3c(F)cccc3Cl)cc2c1)C(F)(F)F (stereo not drawn) [Example 182, 2-(2-chloro-6-fluoro-phenyl)-5-[2-pyridin-3-yl-5-(2,2,2-trifluoro-1-methyl-ethyl)-thiazol-4-yl]-1H-indole]
2 | 28 | CCn1nc(-c2cnccn2)cc1-c1ccc2[nH]c(-c3c(F)cccc3Cl)cc2c1 [Example 183, 2-(2-chloro-6-fluorophenyl)-5-(1-ethyl-3-(pyrazin-2-yl)-1H-pyrazol-5-yl)-1H-indole]
3 | 148 | Cn1nc(-c2ccccn2)nc1-c1ccc2[nH]c(-c3c(F)cccc3Cl)cc2c1 [Example 184, 2-(2-Chloro-6-fluoro-phenyl)-5-(2-methyl-5-pyridin-2-yl-2H-[1,2,4]-triazol-3-yl)-1H-indole]
4 | 65 | CCn1nc(-c2cccnc2)nc1-c1ccc2[nH]c(-c3ccccc3Cl)cc2c1 [Example 185, 2-(2-Chloro-phenyl)-5-(2-ethyl-5-pyridin-3-yl-2H-[1,2,4]-triazol-3-yl)-1H-indole]
5 | 34 | CCn1nc(-c2cccnc2)nc1-c1ccc2[nH]c(-c3c(Cl)cccc3Cl)cc2c1 [Example 186, 2-(2,6-Dichloro-phenyl)-5-(2-ethyl-5-pyridin-3-yl-2H-[1,2,4]triazol-3-yl)-1H-indole]
6 | 69 | CCn1nc(-c2cnccn2)nc1-c1ccc2[nH]c(-c3c(F)cccc3Cl)cc2c1 [Example 187, 2-(2-Chloro-6-fluoro-phenyl)-5-(2-ethyl-5-pyrazin-2-yl-2H-[1,2,4]triazol-3-yl)-1H-indole]
7 | 44 | Cn1nc(-c2cncnc2)nc1-c1ccc2[nH]c(-c3c(F)cccc3Cl)cc2c1 [Example 188, 2-(2-Chloro-6-fluoro-phenyl)-5-(2-methyl-5-pyrimidin-5-yl-2H-[1,2,4]triazol-3-yl)-1H-indole]
8 | 76 | CCn1nc(C(F)(F)F)cc1-c1ccc2[nH]c(-c3ccncc3C)cc2c1 [Example 189, 5-(1-ethyl-3-(trifluoromethyl)-1H-pyrazol-5-yl)-2-(3-methylpyridin-4-yl)-1H-indole]
9 | 111 | CCn1nc(C(F)(F)F)cc1-c1ccc2[nH]c(-c3cnc(OC)cc3C)cc2c1 [Example 190, 5-(1-ethyl-3-(trifluoromethyl)-1H-pyrazol-5-yl)-2-(6-methoxy-4-methylpyridin-3-yl)-1H-indole]
10 | 67 | CCn1nc(C(F)(F)F)cc1-c1ccc2[nH]c(-c3cnccc3C)cc2c1 [Example 191, 5-(1-ethyl-3-(trifluoromethyl)-1H-pyrazol-5-yl)-2-(4-methylpyridin-3-yl)-1H-indole]
11 | 149 | CCn1nc(C(F)(F)F)cc1-c1ccc2[nH]c(-c3ccncc3F)cc2c1 [Example 192, 5-(1-ethyl-3-(trifluoromethyl)-1H-pyrazol-5-yl)-2-(3-fluoropyridin-4-yl)-1H-indole]
12 | 129 | CCn1nc(C(F)(F)F)cc1-c1ccc2[nH]c(-c3ccc(OC)nc3C)cc2c1 [Example 193, 5-(1-ethyl-3-(trifluoromethyl)-1H-pyrazol-5-yl)-2-(6-methoxy-2-methylpyridin-3-yl)-1H-indole]
13 | 139 | CCn1nc(C(F)(F)F)cc1-c1ccc2[nH]c(-c3ccnc(OC)c3Cl)cc2c1 [Example 194, 2-(3-chloro-2-methoxypyridin-4-yl)-5-(1-ethyl-3-(trifluoromethyl)-1H-pyrazol-5-yl)-1H-indole]
14 | 782 | CCn1nc(C(F)(F)F)cc1-c1ccc2[nH]c(C3=CCCCC3)cc2c1 [Example 195, 2-cyclohexenyl-5-[1-ethyl-3-{trifluoromethyl}-1H-pyrazol-5-yl]-1H-indole]
15 | 24 | CCn1nc(C(F)(F)F)cc1-c1ccc2[nH]c(C3CCCCC3)cc2c1 [Example 196, 2-cyclohexyl-5-(1-ethyl-3-(trifluoromethyl)-1H-pyrazol-5-yl)-1H-indole]
16 | 110 | CCn1nc(C(F)(F)F)cc1-c1ccc2c(c1)CC(C1CCCCC1)N2 (stereo not drawn) [Example 197]
17 | 95 | CCn1nc(C(F)(F)F)cc1-c1ccc2[nH]c(C3CCOCC3)cc2c1 [Example 198, 5-(1-ethyl-3-(trifluoromethyl)-1H-pyrazol-5-yl)-2-(tetrahydro-2H-pyran-4-yl)-1H-indole]
18 | 86 | CCn1nc(C(F)(F)F)cc1-c1ccc2[nH]c(C3CCCOC3)cc2c1 (stereo not drawn) [Example 199, 5-(1-ethyl-3-(trifluoromethyl)-1H-pyrazol-5-yl)-2-(tetrahydro-2H-pyran-3-yl)-1H-indole]
19 | 220 | CCn1nc(C(F)(F)F)cc1-c1ccc2[nH]c(C3CCN(C(C)=O)CC3)cc2c1 [Example 200, 1-(4-(5-(1-ethyl-3-(trifluoromethyl)-1H-pyrazol-5-yl)-1H-indol-2-yl)piperidin-1-yl)ethanone]
20 | 35 | COc1cc(F)c(-c2cc3cc(-c4cc(C(F)(F)F)nn4C)ccc3[nH]2)c(Cl)c1 [Example 201, 2-(2-chloro-6-fluoro-4-methoxyphenyl)-5-(1-methyl-3-(trifluoromethyl)-1H-pyrazol-5-yl)-1H-indole]
21 | 57 | COc1cc(F)c(-c2cc3cc(-c4ccc(C#N)cc4C)ccc3[nH]2)c(Cl)c1 [Example 202, 4-(2-(2-chloro-6-fluoro-4-methoxyphenyl)-1H-indol-5-yl)-3-methylbenzonitrile]

Row | IC50 [nM] | SMILES
22 | 31 | CCn1nc(C(F)(F)F)cc1-c1ccc2[nH]c(-c3c(F)cc(OC)cc3Cl)cc2c1 [Example 203, 2-(2-chloro-6-fluoro-4-methoxyphenyl)-5-(1-ethyl-3-(trifluoromethyl)-1H-pyrazol-5-yl)-1H-indole]
23 | 63 | CCn1nc(-c2cnccn2)cc1-c1ccc2[nH]c(-c3c(F)cccc3F)cc2c1 [Example 204, 2-(2,6-difluorophenyl)-5-(1-ethyl-3-(pyrazin-2-yl)-1H-pyrazol-5-yl)-1H-indole]
24 | 24 | CCn1nc(-c2cccnc2)nc1-c1ccc2[nH]c(-c3c(F)cccc3F)cc2c1 [Example 205, 2-(2,6-Difluoro-phenyl)-5-(2-ethyl-5-pyridin-3-yl-2H-[1,2,4]triazol-3-yl)-1H-indole]
25 | 51 | Cc1sc(-c2cnccn2)nc1-c1ccc2[nH]c(-c3c(F)cccc3F)cc2c1 [Example 206, 2-(2,6-Difluoro-phenyl)-5-(5-methyl-2-pyrazin-2-yl-thiazol-4-yl)-1H-indole]
26 | 26 | CCc1sc(-c2cccnc2)nc1-c1ccc2[nH]c(-c3c(F)cccc3F)cc2c1 [Example 207, 2-(2,6-Difluoro-phenyl)-5-(5-ethyl-2-pyridin-3-yl-thiazol-4-yl)-1H-indole]
27 | 97 | Cc1cc(-c2ncco2)ncc1-c1ccc2[nH]c(-c3c(F)cccc3F)cc2c1 [Example 208, 2-(2,6-Difluoro-phenyl)-5-(4-methyl-6-oxazol-2-yl-pyridin-3-yl)-1H-indole]
28 | 54 | Cc1cc(-c2cnc(N)nc2)ncc1-c1ccc2[nH]c(-c3c(F)cccc3F)cc2c1 [Example 209, 5-{5-[2-(2,6-Difluoro-phenyl)-1H-indol-5-yl]-4-methyl-pyridin-2-yl}-pyrimidin-2-ylamine]
29 | 60 | Cc1cc(-c2cncnc2)ncc1-c1ccc2[nH]c(-c3c(F)cccc3F)cc2c1 [Example 210, 2-(2,6-Difluoro-phenyl)-5-(4-methyl-6-pyrimidin-5-yl-pyridin-3-yl)-1H-indole]
30 | 124 | CCn1nc(-c2cnccn2)cc1-c1ccc2[nH]c(-c3cnccc3C)cc2c1 [Example 211, 5-(2-Ethyl-5-pyrazin-2-yl-2H-pyrazo-1-3-yl)-2-(4-methyl-pyridin-3-yl)-1H-indole]
31 | 447 | Cc1cc(C#N)ncc1-c1ccc2[nH]c(-c3cnccc3C)cc2c1 [Example 212, 4-Methyl-5-[2-(4-methyl-pyridin-3-yl)-1H-indol-5-yl]-pyridine-2-carbonitrile]
32 | 105 | COc1cc(C#N)ccc1-c1ccc2[nH]c(-c3cnccc3C)cc2c1 [Example 213]
33 | 41 | Cc1cc(S(C)(=O)=O)ncc1-c1ccc2[nH]c(-c3cnccc3C)cc2c1 [Example 214, 5-(6-Methanesulfonyl-4-methyl-pyridin-3-yl)-2-(4-methyl-pyridin-3-yl)1indole]
34 | 235 | Cc1cc(Cl)ncc1-c1ccc2[nH]c(-c3cnccc3C)cc2c1 [Example 215, 5-(6-Chloro-4-methyl-pyridin-3-yl)-2-(4-methyl-pyridin-3-yl)-1H-indole]
35 | 110 | COc1cc(C)c(-c2ccc3[nH]c(-c4cnccc4C)cc3c2)cn1 [Example 216, 5-(6-Methoxy-4-methyl-pyridin-3-yl)-2-(4-methyl-pyridin-3-yl)-1H-indole]
36 | 100 | Cc1sc(-c2ccccn2)nc1-c1ccc2[nH]c(-c3c(Cl)cccc3Cl)cc2c1 [Example 217, 2-(2,6-Dichloro-phenyl)-5-(5-methyl-2-pyridin-2-yl-thiazol-4-yl)-1H-indole]
37 | 110 | Cc1cccc(C)c1-c1cc2cc(-c3nc(-c4cccnc4)sc3C)ccc2[nH]1 [Example 218, 2-(2,6-Dimethyl-phenyl)-5-(5-methyl-2-pyridin-3-yl-thiazol-4-yl)-1H-indole]
38 | 158 | Cc1cccc(C)c1-c1cc2cc(-c3nc(-c4ccccn4)sc3C)ccc2[nH]1 [Example 219, 2-(2,6-Dimethyl-phenyl)-5-(5-methyl-2-pyridin-2-yl-thiazol-4-yl)-1H-indole]
39 | 24 | Cc1cccc(F)c1-c1cc2cc(-c3nc(-c4cccnc4)sc3C)ccc2[nH]1 [Example 220, 2-(2-Fluoro-6-methyl-phenyl)-5-(5-methyl-2-pyridin-3-yl-thiazol-4-yl)-1H-indole]
40 | 95 | Cc1cccc(F)c1-c1cc2cc(-c3nc(-c4ccccn4)sc3C)ccc2[nH]1 [Example 221, 2-(2-Fluoro-6-methyl-phenyl)-5-(5-methyl-2-pyridin-2-yl-thiazol-4-yl)-1H-indole]
41 | 40 | Cn1nc(C(F)(F)F)cc1-c1ccc2[nH]c(C3CCCCC3)cc2c1 [Example 222]
42 | 54 | Cc1cc(S(=O)(=O)N(C)C)ccc1-c1ccc2[nH]c(C3CCCCC3)cc2c1 [Example 223, 4-(2-cyclohexyl-1H-indol-5-yl)-N,N,3-trimethylbenzenesulfonamide]
